US20180369186A1, “METHOD FOR MODULATING AUTOPHAGY AND APPLICATIONS THEREOF” (JAWAHARLAL NEHRU CENTRE FOR ADVANCED SCIENTIFIC RESEARCH, priority 2015, published 2018)

What was measured:
[1] = tested on: TH+ dopaminergic neurons in SNpc; test: MPTP mouse model: TH+ dopaminergic neurons in SNpc (stereology, densitometry, volume); type: in vivo, mice
Procedure: As described by Vernice Jackson-Lewis & Serge Przedborski (2007), 23.4 mg/kg MPTP.HCl (equivalent to 20 mg/kg free base) in 10 ml/kg body wt. of saline is administered intraperitoneally (i.p.) for 4 times at 2 h intervals.
All mice are sacrificed 9 days post MPTP administration and brains are processed for immunohistochemistry.
Mice are anaesthetized using Halothane BP (Piramal Healthcare) inhalation and perfused intracardially with normal saline followed by 4% PFA in 0.1 M phosphate buffer, pH 7.4. Brains are removed quickly and post-fixed with 4% PFA for 24 h-48 h at 4° C. Following cryoprotection in 15% and 30% sucrose, 40 μm thick coronal cryosections of midbrain are collected serially on gelatinized slides. Immunoperoxidase labelling protocol as identical to that reported. Briefly, endogenous peroxidase is quenched using H2O2 (0.1%) in methanol (70%), followed by blocking of non-specific staining by buffered solution (3%) of bovine serum albumin for 4 h at room temperature. Sections are incubated with TH primary antibody (1:500) followed by biotin conjugated secondary antibody (1:200 dilution, Vector Laboratories). Tertiary labelling is performed with avidin-biotin complex solution (1:100, Vector Laboratories). Staining is visualized using 3′-3′-diaminobenzidine (0.05%) as a chromogen in a solution of 0.1M acetate imidazole buffer (pH 7.4) and H2O2 (0.1%). Negative controls are processed identically, except that primary antibody is replaced with dilution buffer.
As described by Y. Fu et al., SNpcis delineated using the 4× objective of Olympus BX61 Microscope (Olympus) equipped with Stereo Investigator Software Version 7.2 (MicroBrightField). Stereological quantification is performed using optical fractionator probe with slight modifications(P. A. Alladi et al.). Briefly, every sixth midbrain section containing SNpc is chosen and TH^+ cells are counted under 100× objective, with a regular grid interval of 22500 μm^2 (x=150 μm, y=150 μm) and counting frame with an area of 3600 μm^2 (x=60 μm, y=60 μm) (FIG. 10B). Mounted thickness is determined at every fifth site, averaging to 25 μm. Guard zone 4 μm is applied on either side, thus providing 17 μm of z-dimension within optical dissector. The quantification is performed starting with first anterior appearance of TH^+ neurons in SNpc to caudal most part. The SNpc volume is determined by planimetry (FIG. 10C) and total numbers of neurons according to mean measured thickness are noted.
High magnification images of TH stained nigral DAergic neurons, captured for offline assessment of Tyrosine Hydroxylase (TH) enzyme expression levels=used. Expression intensity is measured using a Windows based image analysis system (Q Win V3, Leica Systems). Cumulative mean is derived from the values obtained from sampling, approximately 200 DAergic neurons per animal. Intensity output is measured on a grey scale of 0-255, where 0 equals intense staining and 255 means absence of staining.
The mice are distributed into three groups' viz., vehicle, MPTP and MPTP+XCT 790 injected respectively. The vehicle group receives intraperitoneal injections of dimethyl sulfoxide (DMSO) injections i.e. the solvent. The MPTP group receives 23.4 mg/kg MPTP.HCl in 10 ml/kg body wt. of saline is administered intraperitoneally for 4 times at 2 h interval. The MPTP+XCT 790 group mice are injected with 5 mg/kg body wt, of XCT 790 dissolved in DMSO, alongside the first MPTP injection. […]

yeast cells = test: Yeast growth assay (WT EGFP cells); type: cell-based, S. cerevisiae; settings: 50 μM
Procedure: (§1) Growth assays: In a 384 well plate, appropriate yeast strains are seeded (A600˜0.07) with and without drugs and incubated (80 μl, 30° C. and 420 rpm) in a multiplate reader (Varioskan Flash, Thermo Scientific) for 48 h with automatic absorbance (A600) recording every 20 min. Growth curves are plotted and analyzed using GraphPad Prism.
(§2) Appropriate yeast strains are seeded (A600 ˜0.07) with or without drugs in a 384-well plate and incubated (420 rpm, 30° C. and 80 μl) in a multiplate reader (Varioskan Flash, Thermo Scientific) for 48 h that records absorbance (A600) automatically for every 20 min. Growth curves are plotted using GraphPad Prism.

α-synuclein toxicity = test: S. cerevisiae α-synuclein toxicity model, growth assay; type: cell-based; settings: 50 μM
Procedure: To screen small molecule library LOPAC1280 in S. cerevisiae SNCA toxicity model, working plates containing 50 μM drugs in 1.5% DMSO (190 compounds/plate) are prepared in a 384 well format. WT SNCA-GFP with or without small molecules and untreated WT GFP are grown under optimized conditions (80 μl, 30° C. and 420 rpm) for 36 h in a plate reader (Varioskan Flash, Thermo Scientific) in duplicates with automatic absorbance (A600) recording every 20 min. Growth curves of untreated WT GFP and WT SNCA-GFP strains are plotted and mid to late exponential phase time point of untreated WT GFP strain is chosen as reference for data analysis. Its corresponding time point of untreated and drug treated WT SNCA-GFP strains are plotted separately in a box plot. Small molecules that rescued the growth lag by ≥3 SD units of untreated WT SNCA-GFP strain are considered as ‘Hits’.
as §1
Induction of α-synuclein-EGFP aggregates: To induce α-synuclein-EGFP aggregates, the corresponding strains are inoculated in SD-Ura medium, Secondary culture is inoculated from primary inoculum and incubated till A600 reaches 0.8/ml. Cells are washed twice with sterile water and aggregates are induced by adding SG-Ura for 12-16 h.
To screen small molecule library LOPAC^1280 in S. cerevisiae α-synuclein toxicity model, working plates containing 50 μM drugs (small molecule) in 1.5% DMSO (190 compounds/plate) are prepared in a 384 well format. WT α-synuclein-EGFP with and without small molecules and untreated WT EGFP are grown under optimized conditions (80 μl, 30° C. and 420 rpm) for 36 h in a plate reader (Varioskan Flash, Thermo Scientific) in duplicates with automatic absorbance (A600) recording every 20 min.
Growth curves of untreated WT EGFP and WI α-synuclein-EGFP strains are plotted and mid to late exponential phase time point of untreated WT EGFP strain is chosen as reference for data analysis. Its corresponding time point of untreated and drug treated WT α-synuclein-EGFP strains are plotted separately in a box plot.
as §2

SMILES | decrease in SNpc volume upon MPTP administration ([1]; 5 mg/kg i.p., Co and Pro groups) | effect on growth of yeast cells (yeast cells) | rescue of growth lag due to α-synuclein toxicity (α-synuclein toxicity; WT α-synuclein-EGFP strain) | rescue of growth lag in autophagy mutants expressing α-synuclein (α-synuclein toxicity; atg1Δ, atg5Δ, atg8Δ, atg11Δ and atg15Δ) | prevention of SNpc volume shrinkage ([1]; 5 mg/kg, MPTP+Co vs MPTP) | alleviation of MPTP induced dopaminergic neuronal loss ([1]; 5 mg/kg, co-administration with MPTP) | rescue of growth lag, treated vs untreated (α-synuclein toxicity; WT α-syn cells)
O=C1Nc2cc(Br)ccc2/C1=C1/Nc2ccccc2/C1=N\O [6-Bio, (2′Z,3′E)-6-Bromoindirubin-3′-oxime] | not seen | does not affect the growth of yeast cells | rescues the growth lag | fails to rescue growth lag |  |  | 
COc1cc(C=C(C#N)C(=O)Nc2nnc(C(F)(F)F)s2)ccc1OCc1ccc(C(F)(F)F)cc1C(F)(F)F [XCT 790, 3-[4-(2,4-Bis-trifluoromethylbenzyloxy)-3-methoxyphenyl]-2-cyano-N-(5-trifluoromethyl-1,3,4-thiadiazol-2-yl)acrylamide] |  | does not affect the yeast growth |  |  | approximately 85% | 80% | ~3.2 fold
